Experimental data taken from patent US7521464B2, “Pyrazole compounds for treatment of neurodegenerative disorders” (Pfizer Inc., priority 2002, dated 2009).

System: gamma-secretase
Experiment: gamma-secretase activity in a solubilized membrane preparation (cell-free assay per McLendon et al.)
Type: biochemical
Details: read-out: IC50 activity for inhibiting gamma-secretase activity
Procedure: The activity of compounds of the invention in inhibiting gamma-secretase activity was determined in a solubilized membrane preparation generally according to the description provided in McLendon et al. Cell-free assays for γ-secretase activity, The FASEB Journal (Vol. 14, December 2000, pp. 2383-2386).

Row | IC50 | SMILES
1 | ~1000 nM | O=C(Cc1cc(F)cc(F)c1)NC(C(=O)Nc1cc(-c2ccccc2)n[nH]1)c1ccccc1 (centres unmarked) [Example 84, 2-[2-(3,5-difluoro-phenyl)-acetylamino]-2-phenyl-N-(5-phenyl-2H-pyrazol-3-yl)-acetamide]
2 | ~5000 nM | CCCC(NC(=O)CC(C)CCC=C(C)C)C(=O)Nc1cc(-c2ccccc2)n[nH]1 (centres unmarked) [Example 138, 3,7-Dimethyl-oct-6-enoic acid [1-(5-phenyl-2H-pyrazol-3-ylcarbamoyl)-butyl]-amide]
